The text below walks through data of patent US20140171455A1, “Reduction of Microglia-Mediated Neurotoxicity by Kv1.3 Inhibition” (The Regents of the University of California, priority 2011, published 2014).

The target in data set [1] is T1, Kv1.3 (Mus musculus, UniProt P16390).
T1 construct: pharmacological characterization of currents from cultured microglia stimulated for 48 hours with AbO or LPS; endogenous in cells; host or cells: primary microglia cultured from newborn C57Bl/6 mice, stimulated 48 h with AbO or LPS
Put plainly: Whole-cell voltage-clamp of Kv currents in cultured stimulated microglia. Format: cell-based. To be noted: read-out: IC50 on microglial Kv current. As for the experimental part:
In order to determine if Kv1.3 is indeed functionally expressed in mouse microglia Applicants performed electrophysiological experiments on cultured mouse microglia in the whole-cell mode of the patch-clamp technique. Kv currents were elicited with 500 millisecond pulses from a holding-potential of −100 mV to +40 mV applied every 45 sec.
Microglia cultured from newborn C57B1/6 mice were treated with lipopolysaccharides (LPS) or AbO for 24 or 48 hrs. […] Kv currents were elicited by 500 ms voltage steps from −80 to 40 mV (representative traces on right).

The conditions of data set [2]: rats; cited from earlier work.
Data set [3] relates to rat hippocampal slices (CA1 LTP). Put plainly: CA1 LTP induction in rat hippocampal slices with AbO. It is filed as cell-based. To be noted: PAP-1 10 μM pretreatment 30 min prior to AbO 50 nM; 45 min after HFS. The protocol: FIG. 7 summarizes an experiment wherein, under control conditions, CA1 LTP was induced by high frequency stimulation (HFS), which consists of 4 trans of 100Hz basal intensity stimulation lasting for 1 s per train. In control (vehicle only) group, following the HFS, the amplitude or slope of fEPSP was increased to 209±28% of baseline at 45 min after HFS. The bath application of AbO (50 nM) for 10 min blocked the induction of LTP (126±6.7% of control). […] The mean of five consecutive measurements at the end of LTP induction (45 min) was normalized to the baseline (100%) which was the mean of five consecutive measurements just before the HFS.

The test system of data set [4] is AβO-stimulated cultured microglia. Description: AbetaO-induced microglial neurotoxicity (cultured microglia). To be noted: co-treating AβO-stimulated cultured microglia; AβO 20 nM, PAP-1 1 μM. It is filed as cell-based, mouse. From the text: (§1) Measurements were made in the conditioned medium and normalized to the amount of total cellular protein in each culture. n=4-6, *p<0.001 compared with control, **p<0.001 compared with the “AβO” group. […] NO released by AβO-treated microglia is the major soluble mediator of AβO-induced microglial neurotoxicity.

Data set [5] deals with microglia. Put plainly: Abeta uptake (phagocytosis) assay in microglia by flow cytometry. It is filed as cell-based. To be noted: 2 hrs pre-treatment. From the text: Using an Aβ uptake assay, Applicants pretreated microglia with either control (vehicle only), anti-SRA (scavenger receptor A) antibody, doxycycline or PAP-1. FIG. 2 is a bar graph showing cell-associated fluorescence as measured by flow cytometry after 2 hrs of such pre-treatment. (n=3, *p<0.01 and **p<0.001 compared with control).
For orientation: In flow cytometry, cells or beads pass a laser one at a time.

Data set [6] concerns cultured mouse microglia. Description: Abeta-induced activation of cultured mouse microglia (proliferation, morphology, NFkB, NO, TNF-alpha). Format: cell-based. As for the experimental part:
FIGS. 1A and 1B show data regarding AβO-induced NFκ-B and NO, respectively.
Two (2) hours after administration of the indicated treatment, the mouse brains were sectioned and immunostained with an antibody for p65 of NFκB to mark cells with NFκB activation. Numbers of p65-positive cells per 200 DAPI-labeled cells were determined.
as §1

For data set [7] the following is noted: rodents or primates; cited from earlier work.
The conditions of data set [8]: rhesus macaques; cited from earlier work.
For data set [9] the following is noted: cited from earlier work.
The test system of data set [10] is hippocampal slices. Put plainly: Hippocampal slices: AbetaO-induced microglia activation and neuronal damage. It is filed as cell-based, mouse. To be noted: AβO 20 nM, PAP-1 1 μM. From the text:
Three consecutive hippocampal slices were obtained from mouse brain and from mice received the same indicated treatment. One slice was used for CD11b staining (green) for activated microglia (slices outlined by Hoechst stain), one for propidium iodide (PI) uptake, and one for Fluoro-Jade C stain for neuronal damage. DG: dentate gyrus.

Structures are written as SMILES. Like-named read-outs stand apart in the source and are kept apart here. Bridge positions count the residues as written; N and C are the ends. Peptide text beside a SMILES is read from it.

T1 sequence (P16390 whole entry): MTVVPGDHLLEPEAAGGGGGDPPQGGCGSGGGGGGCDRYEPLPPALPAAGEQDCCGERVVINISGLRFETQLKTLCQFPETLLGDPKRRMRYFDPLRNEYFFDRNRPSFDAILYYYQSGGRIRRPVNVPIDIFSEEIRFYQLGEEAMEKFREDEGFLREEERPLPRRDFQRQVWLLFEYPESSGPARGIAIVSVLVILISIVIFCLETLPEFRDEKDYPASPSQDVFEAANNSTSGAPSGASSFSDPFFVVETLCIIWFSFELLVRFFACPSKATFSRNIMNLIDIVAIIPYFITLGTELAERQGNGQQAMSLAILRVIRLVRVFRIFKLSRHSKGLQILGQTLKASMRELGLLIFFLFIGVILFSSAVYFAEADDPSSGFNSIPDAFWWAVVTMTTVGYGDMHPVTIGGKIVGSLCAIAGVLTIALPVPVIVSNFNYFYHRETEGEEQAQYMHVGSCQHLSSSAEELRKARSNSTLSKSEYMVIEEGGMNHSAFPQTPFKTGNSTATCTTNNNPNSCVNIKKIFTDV

In general, IC50 refers to the concentration needed to halve the response being measured. In the case of `CC[C@H](C)[C@H](NC(=O)[C@@H](N)[C@@H](C)O)C(=O)N[C@H](C(=O)N[C@@H](CC(N)=O)C(=O)N[C@H](C(=O)N[C@@H](CCCCN)C(=O)N[C@H]1CSSC[C@@H]2NC(=O)[C@H](CCCCN)NC(=O)[C@H](C)NC(=O)CNC(=O)[C@H](C)NC(=O)[C@H](CO)NC(=O)[C@H](CCC(N)=O)NC(=O)CNC(=O)[C@H](Cc3ccccc3)NC(=O)[C@H](CCC(N)=O)NC(=O)[C@H](C)NC(=O)[C@H](CCCCN)NC(=O)[C@@H]3CSSC[C@@H](C(=O)N[C@@H](Cc4ccc(O)cc4)C(=O)N4CCC[C@H]4C(=O)N[C@@H](Cc4c[nH]cn4)C(=O)O)NC(=O)[C@H](CCCCN)NC(=O)[C@H](CSSC[C@H](NC(=O)[C@H](CCC(N)=O)NC(=O)[C@H](CCCCN)NC(=O)[C@@H]4CCCN4C(=O)[C@H](CO)NC(=O)[C@H]([C@@H](C)O)NC1=O)C(=O)N[C@@H](CC(C)C)C(=O)N1CCC[C@H]1C(=O)N1CCC[C@H]1C(=O)N3)NC(=O)[C@H](CCCCN)NC(=O)CNC(=O)[C@H](CC(N)=O)NC(=O)[C@H](CCSC)NC2=O)C(C)C)[C@@H](C)CC` [MgTX] (H-TIINVKCTSPKQCLPPCKAQFGQSAGAKCMNGKCKCYPH-OH; disulfide 7-29, 13-34, 17-36 (inferred); N-terminus and C-terminus assumed), the IC50 in [1] (cultured microglia stimulated for 48 hours with AbO) amounted to 0.0797 nM; in data set [1] (cultured microglia stimulated for 48 hours with LPS), 0.0789 nM.

One may read the half-life as the time needed for the level to fall by half in the phase considered. For the compound `O=c1ccc2c(OCCCCOc3ccccc3)c3ccoc3cc2o1` [PAP-1, 5-(4-Phenoxybutoxy)psoralen], the half-life in [2] is 3 h; in [8] it was 6.7 h. The “inhibition by AbO of the induction of CA1 LTP” value in data set [3] is listed as “prevented”. In addition, in data set [4], the AβO-induced microglial neurotoxicity entry was “blocked”. Also, in [5], the “Aβ cell-associated fluorescence (ability of microglia to phagocytose Aβ)” value was “did not impair”. Moreover, the “signs of microglia activation induced by AβO (proliferation, morphological transformation, NFκ-B activation, NO production)” value in [6] (cultured mouse microglia, AβO 20 nM, PAP-1 1 μM) was “inhibited”. For the same compound, in data set [6] (fAβ stimulation), the “increased microglia release of tumor necrosis factor-α, NFκ-B activation and NO production induced by fAβ stimulation” value is “blocked”. Besides, the long-term toxicity result in data set [7] is on record as “has not exhibited long-term toxicity”. Also, the oral bioavailability entry in data set [9] (in vivo, po) is given as “orally bioavailable”. Besides, the “brain concentrations versus plasma concentrations (crosses the blood brain barrier)” value in [9] (pharmacokinetic studies) is recorded as “equal or slightly exceed plasma-concentrations”. In addition, the “AβO-induced microglia activation (CD11b staining)” value in data set [10] is recorded as “substantially reduced”. Moreover, the “AβO-induced neuronal damage (propidium iodide uptake and Fluoro-Jade C staining)” value in data set [10] was “blocked”.
